Measured values: ChEMBL document CHEMBL4052645, “Discovery of potent and efficacious pyrrolopyridazines as dual JAK1/3 inhibitors” (Bioorg Med Chem Lett, 2017)

Columns and labels:
[1] = molecular target: STE20-like serine/threonine-protein kinase (Homo sapiens) (UniProt Q9H2G2); test: Inhibition of wild-type human partial length SLK (S14 to A307 residues) expressed in bacterial expression system assessed as residual activity at 50 nM by Kinomescan method relative to control
[2] = molecular target: Calcium/calmodulin-dependent protein kinase type II subunit alpha (Homo sapiens) (UniProt Q9UQM7); test: Inhibition of wild-type human partial length CAMK2A (M1 to K328 residues) expressed in bacterial expression system assessed as residual activity at 50 nM by Kinomescan method relative to control
[3] = molecular target: Dual specificity protein kinase CLK3 (Homo sapiens) (UniProt P49761); test: Inhibition of wild-type human full length CLK3 (M1 to R490 residues) expressed in bacterial expression system assessed as residual activity at 50 nM by Kinomescan method relative to control
[4] = molecular target: Ephrin type-A receptor 6 (Homo sapiens) (UniProt Q9UF33); test: Inhibition of wild-type human partial length EPHA6 (Y700 to E1046 residues) expressed in bacterial expression system assessed as residual activity at 50 nM by Kinomescan method relative to control
[5] = molecular target: Phosphatidylinositol 4,5-bisphosphate 3-kinase catalytic subunit delta isoform (Homo sapiens) (UniProt O00329); test: Inhibition of wild-type human partial length PIK3CD (R108 to Q1044 residues) expressed in mammalian expression system assessed as residual activity at 50 nM by Kinomescan method relative to control
[6] = molecular target: Serine/threonine-protein kinase mTOR (Homo sapiens) (UniProt P42345); test: Inhibition of wild-type human partial length MTOR (L1382 to W2549 residues) expressed in mammalian expression system assessed as residual activity at 50 nM by Kinomescan method relative to control
[7] = molecular target: Leucine-rich repeat serine/threonine-protein kinase 2 (Homo sapiens) (UniProt Q5S007); test: Inhibition of wild-type human partial length LRRK2 (H970 to E2527 residues) expressed in mammalian expression system assessed as residual activity at 50 nM by Kinomescan method relative to control
[8] = molecular target: Cyclin-dependent kinase-like 5 (Homo sapiens) (UniProt O76039); test: Inhibition of wild-type human partial length CDKL5 (M1 to S337 residues) expressed in mammalian expression system assessed as residual activity at 50 nM by Kinomescan method relative to control
[9] = molecular target: Vascular endothelial growth factor receptor 1 (Homo sapiens) (UniProt P17948); test: Inhibition of wild-type human partial length FLT1 (R781 to F1239 residues) expressed in bacterial expression system assessed as residual activity at 50 nM by Kinomescan method relative to control
Chain of Vascular endothelial growth factor receptor 1 (Homo sapiens) (P17948 whole entry, the tested form may be a part): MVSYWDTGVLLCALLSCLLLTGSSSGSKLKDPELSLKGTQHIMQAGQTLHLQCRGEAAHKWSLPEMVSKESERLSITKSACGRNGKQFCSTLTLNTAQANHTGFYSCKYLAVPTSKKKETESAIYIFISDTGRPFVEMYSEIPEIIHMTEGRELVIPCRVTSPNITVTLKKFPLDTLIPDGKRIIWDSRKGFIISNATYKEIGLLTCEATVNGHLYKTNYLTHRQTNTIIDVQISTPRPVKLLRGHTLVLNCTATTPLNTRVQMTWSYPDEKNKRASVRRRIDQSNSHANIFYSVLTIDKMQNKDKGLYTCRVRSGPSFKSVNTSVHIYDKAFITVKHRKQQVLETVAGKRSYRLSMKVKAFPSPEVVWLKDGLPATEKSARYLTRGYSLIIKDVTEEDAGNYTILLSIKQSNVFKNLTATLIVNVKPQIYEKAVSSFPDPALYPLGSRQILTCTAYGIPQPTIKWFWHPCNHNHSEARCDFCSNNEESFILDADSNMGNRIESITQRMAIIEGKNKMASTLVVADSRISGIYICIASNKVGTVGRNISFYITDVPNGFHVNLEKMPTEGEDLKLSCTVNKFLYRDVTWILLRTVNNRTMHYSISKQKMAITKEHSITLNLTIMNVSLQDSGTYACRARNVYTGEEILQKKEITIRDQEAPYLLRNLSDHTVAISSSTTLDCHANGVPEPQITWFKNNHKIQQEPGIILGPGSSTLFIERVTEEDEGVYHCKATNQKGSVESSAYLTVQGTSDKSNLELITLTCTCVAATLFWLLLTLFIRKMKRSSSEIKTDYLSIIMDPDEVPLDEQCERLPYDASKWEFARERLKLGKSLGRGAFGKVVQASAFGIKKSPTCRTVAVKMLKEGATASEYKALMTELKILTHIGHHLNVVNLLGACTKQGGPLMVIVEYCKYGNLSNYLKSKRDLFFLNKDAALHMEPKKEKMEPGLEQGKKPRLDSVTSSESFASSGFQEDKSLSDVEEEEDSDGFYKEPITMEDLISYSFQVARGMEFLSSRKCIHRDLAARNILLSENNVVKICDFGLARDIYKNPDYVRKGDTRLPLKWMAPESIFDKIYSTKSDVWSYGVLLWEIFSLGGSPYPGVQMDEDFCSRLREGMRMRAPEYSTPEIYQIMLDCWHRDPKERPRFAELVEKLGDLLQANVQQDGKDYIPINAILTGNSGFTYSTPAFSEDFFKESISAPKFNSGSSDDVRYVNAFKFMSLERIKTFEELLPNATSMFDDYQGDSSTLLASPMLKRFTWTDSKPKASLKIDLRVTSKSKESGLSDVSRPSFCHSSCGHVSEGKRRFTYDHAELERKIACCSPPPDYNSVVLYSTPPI

[10] = molecular target: BDNF/NT-3 growth factors receptor (Homo sapiens) (UniProt Q16620); test: Inhibition of wild-type human partial length TRKB (Q547 to G838 residues) expressed in mammalian expression system assessed as residual activity at 50 nM by Kinomescan method relative to control
[11] = molecular target: Mitogen-activated protein kinase kinase kinase 5 (Homo sapiens) (UniProt Q99683); test: Inhibition of wild-type human partial length MAP3K5 (E648 to S964 residues) expressed in bacterial expression system assessed as residual activity at 50 nM by Kinomescan method relative to control
Chain of Mitogen-activated protein kinase kinase kinase 5 (Homo sapiens) (Q99683 whole entry, the tested form may be a part): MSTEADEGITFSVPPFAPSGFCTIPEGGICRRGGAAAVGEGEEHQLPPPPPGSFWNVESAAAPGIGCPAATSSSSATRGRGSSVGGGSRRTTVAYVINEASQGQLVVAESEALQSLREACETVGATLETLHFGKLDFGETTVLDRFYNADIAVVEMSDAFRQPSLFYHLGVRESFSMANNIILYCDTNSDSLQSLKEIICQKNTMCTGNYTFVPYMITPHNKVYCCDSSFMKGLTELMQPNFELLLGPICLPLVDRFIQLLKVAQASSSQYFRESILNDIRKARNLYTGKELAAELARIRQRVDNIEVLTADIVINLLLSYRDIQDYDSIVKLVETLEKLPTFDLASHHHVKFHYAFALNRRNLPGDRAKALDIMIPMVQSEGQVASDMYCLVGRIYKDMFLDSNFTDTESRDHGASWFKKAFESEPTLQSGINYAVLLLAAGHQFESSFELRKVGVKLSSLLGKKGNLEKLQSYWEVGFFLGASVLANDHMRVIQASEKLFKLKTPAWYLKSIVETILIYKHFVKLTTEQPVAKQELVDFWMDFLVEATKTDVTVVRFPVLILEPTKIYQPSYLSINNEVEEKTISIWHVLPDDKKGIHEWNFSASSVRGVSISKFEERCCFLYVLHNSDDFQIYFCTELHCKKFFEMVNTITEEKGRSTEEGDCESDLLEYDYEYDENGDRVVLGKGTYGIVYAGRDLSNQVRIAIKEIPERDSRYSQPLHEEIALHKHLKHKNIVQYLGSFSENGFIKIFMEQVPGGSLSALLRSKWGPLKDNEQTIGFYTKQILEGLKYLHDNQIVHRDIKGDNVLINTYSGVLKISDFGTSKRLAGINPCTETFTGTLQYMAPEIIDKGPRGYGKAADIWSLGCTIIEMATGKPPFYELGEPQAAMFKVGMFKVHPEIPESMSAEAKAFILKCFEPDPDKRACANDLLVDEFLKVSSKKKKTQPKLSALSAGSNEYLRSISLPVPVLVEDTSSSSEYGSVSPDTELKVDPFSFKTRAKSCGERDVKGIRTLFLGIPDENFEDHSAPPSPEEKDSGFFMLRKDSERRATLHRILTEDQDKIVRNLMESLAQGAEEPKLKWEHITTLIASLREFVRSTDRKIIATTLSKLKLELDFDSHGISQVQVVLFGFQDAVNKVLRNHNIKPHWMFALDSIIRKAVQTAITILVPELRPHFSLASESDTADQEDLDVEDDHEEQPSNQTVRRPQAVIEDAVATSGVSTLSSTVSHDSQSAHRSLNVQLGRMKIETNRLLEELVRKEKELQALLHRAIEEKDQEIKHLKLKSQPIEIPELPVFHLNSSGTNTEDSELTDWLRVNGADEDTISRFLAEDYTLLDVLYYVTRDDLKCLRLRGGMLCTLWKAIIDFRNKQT

[12] = molecular target: Tyrosine-protein kinase FRK (Homo sapiens) (UniProt P42685); test: Inhibition of wild-type human partial length FRK (A215 to F503 residues) expressed in bacterial expression system assessed as residual activity at 50 nM by Kinomescan method relative to control
[13] = molecular target: Serine/threonine-protein kinase 24 (Homo sapiens) (UniProt Q9Y6E0); test: Inhibition of wild-type human partial length MST3 (A30 to S311 residues) expressed in bacterial expression system assessed as residual activity at 50 nM by Kinomescan method relative to control
[14] = molecular target: Casein kinase II subunit alpha (Homo sapiens) (UniProt P68400); test: Inhibition of wild-type human full length CK2A1 (M1 to Q391 residues) expressed in mammalian expression system assessed as residual activity at 50 nM by Kinomescan method relative to control
Chain of Casein kinase II subunit alpha (Homo sapiens) (P68400 whole entry, looked up, the tested form may be a part): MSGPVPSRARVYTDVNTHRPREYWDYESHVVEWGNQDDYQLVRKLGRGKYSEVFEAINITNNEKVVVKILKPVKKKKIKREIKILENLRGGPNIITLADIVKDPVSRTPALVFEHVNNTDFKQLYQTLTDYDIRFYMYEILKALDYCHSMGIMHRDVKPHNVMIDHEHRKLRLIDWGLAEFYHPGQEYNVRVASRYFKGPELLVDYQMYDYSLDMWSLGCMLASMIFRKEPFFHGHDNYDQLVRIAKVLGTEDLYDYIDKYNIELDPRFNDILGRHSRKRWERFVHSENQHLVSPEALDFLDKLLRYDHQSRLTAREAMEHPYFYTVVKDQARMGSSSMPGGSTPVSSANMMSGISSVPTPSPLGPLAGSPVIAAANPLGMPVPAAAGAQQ

[15] = molecular target: Mitogen-activated protein kinase kinase kinase 15 (Homo sapiens) (UniProt Q6ZN16); test: Inhibition of wild-type human partial length MAP3K15 (T625 to L932 residues) expressed in mammalian expression system assessed as residual activity at 50 nM by Kinomescan method relative to control
[16] = molecular target: Serine/threonine-protein kinase tousled-like 1 (Homo sapiens) (UniProt Q9UKI8); test: Inhibition of wild-type human partial length TLK1 (K447 to A754 residues) expressed in bacterial expression system assessed as residual activity at 50 nM by Kinomescan method relative to control
[17] = molecular target: RAF proto-oncogene serine/threonine-protein kinase (Homo sapiens) (UniProt P04049); test: Inhibition of wild-type human partial length RAF1 (I330 to T640 residues) expressed in bacterial expression system assessed as residual activity at 50 nM by Kinomescan method relative to control
[18] = molecular target: Dual specificity protein kinase TTK (Homo sapiens) (UniProt P33981); test: Inhibition of wild-type human partial length TTK (N505 to V798 residues) expressed in bacterial expression system assessed as residual activity at 50 nM by Kinomescan method relative to control
[19] = molecular target: Macrophage colony-stimulating factor 1 receptor (Homo sapiens) (UniProt P07333); test: Inhibition of wild-type human partial length FMS (I564 to S939 residues) expressed in bacterial expression system assessed as residual activity at 50 nM by Kinomescan method relative to control
[20] = molecular target: Serine/threonine-protein kinase Sgk3 (Homo sapiens) (UniProt Q96BR1); test: Inhibition of wild-type human partial length SGK3 (M119 to L496 residues) expressed in mammalian expression system assessed as residual activity at 50 nM by Kinomescan method relative to control
[21] = molecular target: Serine/threonine-protein kinase VRK2 (Homo sapiens) (UniProt Q86Y07); test: Inhibition of wild-type human partial length VRK2 (M1 to T336 residues) expressed in mammalian expression system assessed as residual activity at 50 nM by Kinomescan method relative to control
[22] = molecular target: Citron Rho-interacting kinase (Homo sapiens) (UniProt O14578); test: Inhibition of wild-type human partial length CRIK (M68 to E432 residues) expressed in bacterial expression system assessed as residual activity at 50 nM by Kinomescan method relative to control
Chain of Citron Rho-interacting kinase (Homo sapiens) (O14578 whole entry, the tested form may be a part): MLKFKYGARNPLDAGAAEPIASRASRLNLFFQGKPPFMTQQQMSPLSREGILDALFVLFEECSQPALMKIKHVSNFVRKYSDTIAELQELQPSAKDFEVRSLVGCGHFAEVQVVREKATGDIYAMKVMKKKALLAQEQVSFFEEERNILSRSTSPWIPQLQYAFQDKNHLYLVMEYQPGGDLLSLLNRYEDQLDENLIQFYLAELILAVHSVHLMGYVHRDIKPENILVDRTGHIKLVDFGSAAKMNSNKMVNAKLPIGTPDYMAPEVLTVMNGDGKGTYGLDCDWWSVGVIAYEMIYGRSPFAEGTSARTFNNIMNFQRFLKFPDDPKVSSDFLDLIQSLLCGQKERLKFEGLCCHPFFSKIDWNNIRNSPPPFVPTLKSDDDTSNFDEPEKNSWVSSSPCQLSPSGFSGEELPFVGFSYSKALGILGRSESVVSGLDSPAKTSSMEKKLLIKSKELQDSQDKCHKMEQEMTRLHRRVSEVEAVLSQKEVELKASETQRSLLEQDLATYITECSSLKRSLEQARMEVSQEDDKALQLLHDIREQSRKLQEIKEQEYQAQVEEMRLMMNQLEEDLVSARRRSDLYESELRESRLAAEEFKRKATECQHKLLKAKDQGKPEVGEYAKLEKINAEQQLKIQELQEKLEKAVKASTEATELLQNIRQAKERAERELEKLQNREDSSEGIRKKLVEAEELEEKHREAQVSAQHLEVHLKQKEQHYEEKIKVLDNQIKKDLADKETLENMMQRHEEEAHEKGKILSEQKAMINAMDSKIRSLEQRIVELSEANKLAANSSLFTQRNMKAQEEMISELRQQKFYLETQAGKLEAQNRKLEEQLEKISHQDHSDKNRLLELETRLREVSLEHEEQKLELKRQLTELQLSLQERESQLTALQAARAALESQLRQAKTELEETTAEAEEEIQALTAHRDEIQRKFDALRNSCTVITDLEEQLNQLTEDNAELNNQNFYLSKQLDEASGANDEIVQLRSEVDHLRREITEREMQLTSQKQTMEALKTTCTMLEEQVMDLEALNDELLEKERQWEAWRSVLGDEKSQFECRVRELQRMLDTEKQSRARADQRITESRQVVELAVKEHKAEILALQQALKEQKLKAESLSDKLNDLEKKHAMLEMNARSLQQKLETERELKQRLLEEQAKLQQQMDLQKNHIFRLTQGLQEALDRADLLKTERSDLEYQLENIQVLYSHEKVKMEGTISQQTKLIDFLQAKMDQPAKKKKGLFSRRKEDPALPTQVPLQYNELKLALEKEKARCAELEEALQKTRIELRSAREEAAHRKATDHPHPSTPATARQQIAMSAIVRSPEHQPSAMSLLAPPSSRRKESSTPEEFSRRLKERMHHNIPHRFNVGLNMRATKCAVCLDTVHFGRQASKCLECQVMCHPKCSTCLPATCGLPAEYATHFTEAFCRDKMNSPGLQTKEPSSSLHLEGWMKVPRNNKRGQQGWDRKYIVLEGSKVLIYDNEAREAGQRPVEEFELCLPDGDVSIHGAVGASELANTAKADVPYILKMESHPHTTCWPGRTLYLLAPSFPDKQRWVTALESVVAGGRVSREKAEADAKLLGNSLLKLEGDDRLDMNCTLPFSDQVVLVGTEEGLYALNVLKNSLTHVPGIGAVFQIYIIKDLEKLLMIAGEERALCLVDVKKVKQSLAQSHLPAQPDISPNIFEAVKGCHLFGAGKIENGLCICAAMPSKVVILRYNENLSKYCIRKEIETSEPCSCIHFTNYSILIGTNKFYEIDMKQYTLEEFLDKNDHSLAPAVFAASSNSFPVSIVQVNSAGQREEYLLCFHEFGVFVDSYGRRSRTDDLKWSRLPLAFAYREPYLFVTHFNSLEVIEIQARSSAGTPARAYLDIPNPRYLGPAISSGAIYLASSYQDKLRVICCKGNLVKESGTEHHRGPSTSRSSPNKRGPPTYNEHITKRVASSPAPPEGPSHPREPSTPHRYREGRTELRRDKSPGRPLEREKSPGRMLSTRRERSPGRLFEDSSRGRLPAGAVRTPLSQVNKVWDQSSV

[23] = molecular target: Tyrosine-protein kinase Fer (Homo sapiens) (UniProt P16591); test: Inhibition of wild-type human partial length FER (S542 to T822 residues) expressed in bacterial expression system assessed as residual activity at 50 nM by Kinomescan method relative to control
[24] = molecular target: Serine/threonine-protein kinase 10 (Homo sapiens) (UniProt O94804); test: Inhibition of wild-type human partial length LOK (E16 to V314 residues) expressed in bacterial expression system assessed as residual activity at 50 nM by Kinomescan method relative to control
[25] = molecular target: Cyclin-dependent kinase 4/cyclin D1 (Homo sapiens) (UniProt P11802+P24385); test: Inhibition of wild-type human full length CDK4/cyclinD1 (M1 to E303 residues) expressed in mammalian expression system assessed as residual activity at 50 nM by Kinomescan method relative to control

`CC1(C)[C@H](Nc2c(C(N)=O)cnn3cc(-c4ccccc4)cc23)CC[C@]1(C)N` showed an Activity [1] of 18%, an Activity [2] of 88% and an Activity [3] of 100%. The Activity [4] was 100%, the Activity [5] was 44% and the Activity [6] was 95%. For the same compound, the Activity [7] was 21%, the Activity [8] was 83% and the Activity [9] was 100%. The Activity [10] was 80%, the Activity [11] was 100% and the Activity [12] was 89%. The Activity [13] was 38%, the Activity [14] was 56% and the Activity [15] was 100%. For the same compound, the Activity [16] was 61%, the Activity [17] was 100% and the Activity [18] was 100%. The Activity [19] was 57%, the Activity [20] was 56% and the Activity [21] was 70%. The Activity [22] was 100%, the Activity [23] was 100% and the Activity [24] was 48%. For the same compound, the Activity [25] was 100%.

Work on `COc1ccc(-c2cc3c(N[C@@H]4CC[C@](C)(N)C4(C)C)c(C(N)=O)cnn3c2)cn1` yielded an Activity [1] of 94%, an Activity [2] of 100% and an Activity [3] of 96%. For the same compound, the Activity [4] was 95%, the Activity [5] was 100% and the Activity [6] was 97%. The Activity [7] was 25%, the Activity [8] was 90% and the Activity [9] was 90%. The Activity [10] was 100%, the Activity [11] was 100% and the Activity [12] was 100%. The Activity [13] was 61%, the Activity [14] was 100% and the Activity [15] was 98%. It also gave an Activity [16] of 80%, an Activity [17] of 100% and an Activity [18] of 81%. For the same compound, the Activity [19] was 74%, the Activity [20] was 84% and the Activity [21] was 85%. It also gave an Activity [22] of 100%, an Activity [23] of 100% and an Activity [24] of 75%. It also gave an Activity [25] of 97%.
